Here are results for 1 compound from US5283245A, “Heterocyclic thiazole derivatives and pharmaceutical compositions comprising said derivatives” (Imperial Chemical Industries PLC, priority 1989, dated 1994).

pIC50: −log10 of the molar value. Where only a bound is given, the exact number is not on record here.

In test [1] the target is T1, 5-LO (Homo sapiens, UniProt P09917).
T1 construct: incubating a test compound with heparinised human blood; endogenous in cells; host or cells: heparinised whole human blood (leukocytes, by own knowledge)
T1 sequence (P09917 1-674): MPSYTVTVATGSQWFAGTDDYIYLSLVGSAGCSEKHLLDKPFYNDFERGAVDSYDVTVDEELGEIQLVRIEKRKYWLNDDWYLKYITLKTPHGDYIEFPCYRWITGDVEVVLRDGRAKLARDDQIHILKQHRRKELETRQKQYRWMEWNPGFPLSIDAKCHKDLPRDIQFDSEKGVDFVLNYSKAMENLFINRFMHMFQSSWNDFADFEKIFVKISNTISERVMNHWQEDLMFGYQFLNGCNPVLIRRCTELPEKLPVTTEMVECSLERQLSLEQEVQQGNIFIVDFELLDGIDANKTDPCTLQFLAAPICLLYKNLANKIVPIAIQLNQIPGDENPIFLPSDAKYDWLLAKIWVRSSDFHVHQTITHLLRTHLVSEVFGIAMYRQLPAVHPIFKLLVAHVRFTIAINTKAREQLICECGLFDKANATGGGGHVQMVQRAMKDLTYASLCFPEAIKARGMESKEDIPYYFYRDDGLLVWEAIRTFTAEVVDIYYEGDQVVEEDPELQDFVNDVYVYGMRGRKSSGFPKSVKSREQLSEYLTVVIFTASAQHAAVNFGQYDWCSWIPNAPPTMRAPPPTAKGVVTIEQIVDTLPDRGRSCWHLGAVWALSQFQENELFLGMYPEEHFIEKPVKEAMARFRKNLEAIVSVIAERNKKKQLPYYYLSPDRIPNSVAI
The experiment in a line: heparinised human blood challenged with calcium ionophore A23187, LTB4 radioimmunoassay (test b). It counts as cell-based. The note with it: A23187 challenge. As to the method:
(§1) b) An in vitro assay system involving incubating a test compound with heparinised human blood, prior to challenge with the calcium ionophore A23187 and then indirectly measuring the inhibitory effects on 5-LO by assaying the amount of LTB4 using the specific radioimmunoassay described by Carey and Forder (F. Carey and R. A. Forder, Brit. J. Pharmacol. 1985, 84, 34P) which involves the use of a protein-LTB4 conjugate produced using the procedure of Young et alia (Prostaglandins, 1983, 26(4),605-613). The effects of a test compound on the enzyme cyclooxygenase (which is involved in the alternative metabolic pathway for arachidonic acid and gives rise to prostaglandins, thromboxanes and related metabolites) may be measured at the same time using the specific radioimmunoassay for thromboxane B2 (TxB2) described by Carey and Forder (see above). This test provides an indication of the effects of a test compound against 5-LO and also cyclooxygenase in the presence of blood cells and proteins. It permits the selectivity of the inhibitory effect on 5-LO or cyclooxygenase to be assessed.

For test [2], the target named is T2, 5-LO (Rattus norvegicus, UniProt P12527).
T2 construct: blood collection, heparinisation, challenge with A23187 and radioimmunoassay of LTB4 and TxB2; endogenous in cells
T2 sequence (P12527 1-673): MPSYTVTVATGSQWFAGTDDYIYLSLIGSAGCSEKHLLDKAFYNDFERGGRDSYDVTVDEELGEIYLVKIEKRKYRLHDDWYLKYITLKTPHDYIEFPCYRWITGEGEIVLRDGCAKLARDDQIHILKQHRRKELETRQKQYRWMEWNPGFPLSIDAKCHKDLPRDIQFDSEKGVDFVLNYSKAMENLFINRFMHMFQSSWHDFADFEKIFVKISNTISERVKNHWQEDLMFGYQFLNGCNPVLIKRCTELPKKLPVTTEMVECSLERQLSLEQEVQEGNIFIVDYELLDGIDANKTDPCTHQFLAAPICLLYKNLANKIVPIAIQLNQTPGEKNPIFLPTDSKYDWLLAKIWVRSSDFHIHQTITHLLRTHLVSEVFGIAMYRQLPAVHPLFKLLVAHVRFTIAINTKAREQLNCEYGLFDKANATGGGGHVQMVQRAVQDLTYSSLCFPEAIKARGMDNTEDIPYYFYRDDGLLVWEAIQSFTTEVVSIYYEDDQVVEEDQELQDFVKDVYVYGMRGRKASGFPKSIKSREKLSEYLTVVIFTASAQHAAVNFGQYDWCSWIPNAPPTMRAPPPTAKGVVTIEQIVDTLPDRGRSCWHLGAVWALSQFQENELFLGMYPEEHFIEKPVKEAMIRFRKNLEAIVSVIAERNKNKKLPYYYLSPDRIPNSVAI
Briefly: ex vivo assay: administration of compound, blood collection, A23187 challenge, LTB4 radioimmunoassay (test c). The note with it: oral administration. Format: in vivo.

For test [3], the target named is T3, cyclooxygenase (Homo sapiens, UniProt P23219).
T3 construct: incubating a test compound with heparinised human blood; endogenous in cells; host or cells: heparinised whole human blood (platelets, by own knowledge)
Briefly: heparinised human blood challenged with calcium ionophore A23187, TxB2 radioimmunoassay (test b). It counts as cell-based. The conditions noted are these: A23187 challenge. How it is done: as §1

T3 sequence (P23219 24-599): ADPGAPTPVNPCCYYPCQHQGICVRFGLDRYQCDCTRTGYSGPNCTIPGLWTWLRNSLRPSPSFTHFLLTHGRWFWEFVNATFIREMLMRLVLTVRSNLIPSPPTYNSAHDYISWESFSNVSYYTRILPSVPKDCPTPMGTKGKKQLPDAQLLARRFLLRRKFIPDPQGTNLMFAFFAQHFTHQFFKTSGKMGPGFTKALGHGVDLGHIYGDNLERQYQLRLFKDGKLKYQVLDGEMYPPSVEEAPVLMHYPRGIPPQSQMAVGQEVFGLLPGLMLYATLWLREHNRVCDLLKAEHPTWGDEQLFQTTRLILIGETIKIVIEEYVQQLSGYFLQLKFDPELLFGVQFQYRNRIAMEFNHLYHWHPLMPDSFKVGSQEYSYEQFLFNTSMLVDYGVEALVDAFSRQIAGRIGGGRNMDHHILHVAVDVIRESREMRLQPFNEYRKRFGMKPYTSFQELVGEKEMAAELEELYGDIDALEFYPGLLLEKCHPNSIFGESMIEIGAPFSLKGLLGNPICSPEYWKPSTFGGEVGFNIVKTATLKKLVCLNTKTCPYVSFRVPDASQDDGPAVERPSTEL

Usually pIC50 stands for −log10 of the IC50, conventionally taken in molar units. The term ED50 denotes the midpoint of the dose-response relation. A low value points to greater potency. As for `CCC(OC)(c1cccc(OCC#Cc2ccccn2)c1)c1nccs1` (stereo not drawn) [2-[1-[3-(3-(2-pyridyl)prop-2-yn-1-yloxy)phenyl]-1-methoxypropyl]thiazole], the pIC50 in test [1] was 6.15; in test [3] it was under 4.40. The compound also registered an ED50 in test [2] of 50 mg/kg.
